Assay results from PMC6773697, “Antileukemic activity of novel adenosine derivatives” (Scientific Reports, 2019).

Tests used:
Format in all cases: cell-based, human
[1] = tested on: caspase-3/7 in HL-60 cells; assay: Caspase 3/7 assay, HL-60; details: HL-60, 48 h
Procedure: (§1) The activities of caspases-3 and −7 were estimated with CellEvent™ Caspse-3/7 Green Detection Reagent (Thermo Fisher Scientific) according to the manufacturer’s protocol. The cells were seeded on 96-well plates (15 × 10^3/ well) and 24 h later, incubated with the appropriate drugs for 24 h or 48 h. The cells were fixed by adding a final concentration of 4% paraformaldehyde solution (10 min, room temperature). Cells were labeled with CellEvent™Caspase-3/7 Green Detection Reagent (5 µM), followed by Hoechst 33342 (5 µg/ml) for 15 minutes in complete medium3. Caspase-3/7 Green Detection Reagent was diluted into PBS with 5% FBS to avoid fluorescence background. After activation of caspase-3/7 in apoptotic cells, the DEVD peptide was cleaved, enabling the dye to bind DNA, which produced a bright, fluorogenic response with absorption/emission maxima of 502/530 nm according with manufacture protocol. Fluorescence intensity was measured using a Fluoroskan Ascent FL plate reader (Labsystem, Sweden). Cysteine protease activity was expressed as a ratio of fluorescence of the drug-treated samples to the corresponding untreated controls (taken as 100%). In some experimental variants, cells were preincubated for 1 h with VE-821 (10 µM) or Z-FA-FMK (caspas-3 inhibitor, 0.5 µM) to confirm that the fluorescence observed in both control and drug-treated cells was due to the presence of caspase-3/7 in samples. The caspase 3/7 signal was normalized to the Hoechst 33342 staining intensity to account for differences in cell seeding density (description in: Intracellular calcium assay section).

[2] = tested on: caspase-3/7 in THP-1 cells; assay: Caspase 3/7 assay, THP-1; details: THP-1, 48 h
Procedure: as §1, with “After activation of caspase-3/7 in apoptotic cells, the DEVD peptide was cleaved, enabling the dye to bind DNA, which produced a bright, fluorogenic response with absorption/emission maxima of 502/530 nm according with manufacture protocol.” left out, “The caspase 3/7 signal was normalized to the Hoechst 33342 staining intensity to account for differences in cell seeding density (description in: Intracellular calcium assay section).” left out

dCK in HL-60 cells = assay: Deoxycytidine kinase activity, HL-60; details: HL-60, 24 h incubation
Procedure: Deoxycytidine kinase activity was measured in accordance with the manufacturer’s protocol. The cells, at final concentration were plated at 1 × 10^6 cells per 24-well plates and cultured with the tested compounds for 24 h. Some cells were preincubated with an ATR kinase inhibitor (VE-821) for 1 h at 37 °C before adding the tested compounds. After drug treatment, the cells were washed with PBS and resuspended in an ice-cold cytosol extraction buffer containing 1 mM phenylmethylsulfonyl fluoride (PMSF) and a protease inhibitor cocktail. The cell lysate was centrifuged at 10,000 × g for 30 min at 4 °C. The protein concentration was determined using the Bradford method. The supernatant (cytosolic fraction) was collected and stored at −80 °C. The clarified cytoplasm extracts, dCK standards, and blank control were added to the appropriate microtiter plate wells with a biotin-conjugated polyclonal antibody prepared specifically for dCK. Avidin conjugated to horseradish peroxidase (HRP) was added to each microplate well and incubated. Then, a TMB substrate solution was added to the plate. […] The enzyme-substrate reaction was terminated by addition of a sulfuric acid solution. The color change was measured spectrophotometrically at a wavelength of 450 nm using a microplate reader (BioTek).

[3] = tested on: caspase-3/7 in MOLT-4 cells; assay: Caspase 3/7 assay, MOLT-4; details: MOLT-4, 48 h
Procedure: as §1, with “After activation of caspase-3/7 in apoptotic cells, the DEVD peptide was cleaved, enabling the dye to bind DNA, which produced a bright, fluorogenic response with absorption/emission maxima of 502/530 nm according with manufacture protocol.” left out, “The caspase 3/7 signal was normalized to the Hoechst 33342 staining intensity to account for differences in cell seeding density (description in: Intracellular calcium assay section).” left out

HL-60 cells = assay: Alkaline comet assay, HL-60; details: HL-60, 48 h
Procedure: (§2) Single cell gel electrophoresis (comet assay) was used to detect alkali labile sites, single and double DNA strand breaks, and cross-links induced by genotoxic agents. After electrophoresis and gel staining with 4,6-diamidino-2-phenylindole (DAPI), the released DNA was visible under a fluorescence microscope as a characteristic comet tail. The cells were plated on 24-well plates (20,000 cells/mL) and treated with CLA, CLA-FMOR, CLA-FPIP, or CLA-FPIR at the indicated concentrations for 2, 24, and 48 h at 37 °C. Some cells were preincubated with an ATR kinase inhibitor (VE-821) for 1 h at 37 °C before adding the tested compounds. Next, cells were collected into Eppendorf tubes and rinsed with PBS. Then, cells were suspended in 0.75% low melting point (LMP) agarose dissolved in PBS (pH 7.4) and placed on microscope slides precoated with 0.5% normal melting point (NMP) agarose. […] The slides were stored in a wet chamber at 4 °C and analyzed under a fluorescence microscope. Fifty randomly selected cells from each slide were measured using image analysis (Nikon, Japan) attached to a COHU 4910 video camera, which was equipped with a UV-1 filter block consisting of an excitation filter (359 nm) and a barrier filter (461 nm) connected to the image analysis system Lucia-Comet v. […] In the samples preincubated with VE-821, the level of DNA damage associated with the ATR kinase was determined.

MOLT-4 cells [4] = assay: Cell cycle analysis by flow cytometry, MOLT-4; details: 80 nM, +VE-821 = 1 h preincubation
Procedure: Cellular DNA content was quantified by flow cytometry. Cells were treated with drugs for 2, 24, and 48 h. For experiments with inhibitors, cells were subjected to 1 h preincubation with VE-821. CLA, CLA-FMOR, CLA-FPIP, or CLA-FPIR was added, and incubation continued for the indicated times under the same conditions. After incubation was completed, cells were collected, washed twice with PBS, and fixed in 70% ethanol. After ethanol fixation (at least 24 h at 4 °C), cells were washed in PBS and centrifuged at 7,000 × g for 10 min at 4 °C. Pelleted cells were stained by adding 300 µL PBS containing PI and RNase at final concentrations of 75 µM and 20 µg/mL, respectively. This was followed by 1 h incubation in total darkness at 37 °C. Stained cells were analyzed using a flow cytometer (Becton Dickinson, San Jose, CA, USA). The cell populations at specific phases of the cell cycle were quantified from a standard count of 10,000 cells using FlowJo cytology software (Ashland, OR, USA)[39],[40].

MOLT-4 cells [5] = assay: Alkaline comet assay, MOLT-4; details: MOLT-4, 48 h, 80 nM
Procedure: as §2

OC[C@H]1O[C@@H](n2cnc3c(N=CN4CCCC4)nc(Cl)nc32)C[C@@H]1O [CLA-FPIR, [6-deamino-6-(N′, N′-l′, 4′-tetramethyleneformamidino)] cladribine]
caspase-3/7 level [1]: highest changes | caspase-3/7 level [2]: highest changes

OC[C@H]1O[C@@H](n2cnc3c(N=CN4CCOCC4)nc(Cl)nc32)C[C@@H]1O [CLA-FMOR, [6-deamino-6-(N′, N′-3′-oxa-1′, 5′-pentamethyleneformamidine)] cladribine]
dCK activity (dCK in HL-60 cells): highest dCK activity | caspase-3/7 level [3]: highest changes | DNA damage relative to that induced by the unmodified drug (HL-60 cells): two-fold higher | DNA fragmentation, percentage of the DNA in the comet tail (HL-60 cells; 130 nM): 24% | MOLT-4 (48h) S, percentage share of cell cycle phase (MOLT-4 cells [4]): 46% | DNA fragmentation, percentage of the DNA in the comet tail (MOLT-4 cells [5]): 27%
